Counter-ions that a name gives are not always drawn.
Legend:
Rat FAAH-1 = target: T1, Rat FAAH-1 (Rattus norvegicus, UniProt P97612); assay: Rat FAAH-1 assay (Assay Method 2), 3H-anandamide hydrolysis in cell homogenate; assay type: biochemical
T1 construct: expressed in transfected cells
T1 sequence (P97612 1-579): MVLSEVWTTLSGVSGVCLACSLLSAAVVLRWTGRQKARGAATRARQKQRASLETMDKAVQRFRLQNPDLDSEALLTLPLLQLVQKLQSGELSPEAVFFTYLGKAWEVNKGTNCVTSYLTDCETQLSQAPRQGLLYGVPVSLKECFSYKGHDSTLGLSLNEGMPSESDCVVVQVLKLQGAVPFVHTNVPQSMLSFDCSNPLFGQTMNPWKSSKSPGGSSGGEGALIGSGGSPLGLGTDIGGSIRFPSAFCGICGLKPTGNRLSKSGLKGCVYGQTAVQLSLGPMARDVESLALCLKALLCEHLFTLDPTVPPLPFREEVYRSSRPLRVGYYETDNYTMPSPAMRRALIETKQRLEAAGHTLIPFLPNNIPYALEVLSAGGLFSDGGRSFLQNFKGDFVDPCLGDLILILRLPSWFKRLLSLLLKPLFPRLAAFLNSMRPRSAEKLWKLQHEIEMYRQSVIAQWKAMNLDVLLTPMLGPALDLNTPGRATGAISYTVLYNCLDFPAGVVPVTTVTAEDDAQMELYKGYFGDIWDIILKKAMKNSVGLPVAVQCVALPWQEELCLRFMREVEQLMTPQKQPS
Method: A. Transfection of Cells with Rat FAAH-1
(§1) A 10-cm tissue culture dish with a confluent monolayer of SK-N-MC cells was split 2 days (d) prior to transfection. Using sterile technique, the media was removed and the cells were detached from the dish by the addition of trypsin. One fifth of the cells were then placed onto a new 10-cm dish. Cells were grown in a 37° C. incubator with 5% CO2 in Minimal Essential Media Eagle with 10% Fetal Bovine Serum. After 2 d, cells were approximately 80% confluent. These cells were removed from the dish with trypsin and pelleted in a clinical centrifuge. The pellet was re-suspended in 400 μL complete media and transferred to an electroporation cuvette with a 0.4 cm gap between the electrodes. Supercoiled rat FAAH cDNA (1 μg) was added to the cells and mixed. The voltage for the electroporation was set at 0.25 kV, and the capacitance was set at 960 μF. After electroporation, the cells were diluted into complete media (10 mL) and plated onto four 10-cm dishes. Because of the variability in the efficiency of electroporation, four different concentrations of cells were plated. The ratios used were 1:20, 1:10, and 1:5, with the remainder of the cells being added to the fourth dish. The cells were allowed to recover for 24 h before adding the selection media (complete media with 600 μg/mL G418). After 10 d, dishes were analyzed for surviving colonies of cells. Dishes with well-isolated colonies were used. Cells from individual colonies were isolated and tested.
(§2) The assay mixture consisted of 50 μL of the cell homogenate, 10 μL of the test compound, and 40 μL of anandamide [1-^3H-ethanolamine] (^3H-AEA, Perkin-Elmer, 10.3 Ci/mmol), which was added last, for a final tracer concentration of 80 nM. The reaction mixture was incubated at rt for 1 h. During the incubation, 96-well Multiscreen filter plates (catalog number MAFCNOB50; Millipore, Bedford, Mass., USA) were loaded with 25 μL of activated charcoal (Multiscreen column loader, catalog number MACL09625, Millipore) and washed once with 100 μL of MeOH. Also during the incubation, 96-well DYNEX MicroLite plates (catalog number NL510410) were loaded with 100 μL of MicroScint40 (catalog number 6013641, Packard Bioscience, Meriden, Conn., USA). After the 1 h incubation, 60 μL of the reaction mixture were transferred to the charcoal plates, which were then assembled on top of the DYNEX plates using Centrifuge Alignment Frames (catalog number MACF09604, Millipore). The unbound labeled ethanolamine was centrifuged through to the bottom plate (5 min at 2000 rpm), which was preloaded with the scintillant, as described above. The plates were sealed and left at rt for 1 h before counting on a Hewlett Packard TopCount.
(§3) Where activity is shown as greater than (>) a particular value, the value is the solubility limit of the compound in the assay medium or the highest concentration tested in the assay.

FAAH = target: T2, FAAH (Homo sapiens, UniProt O00519); assay: Human FAAH assay (Assay Method 1), 3H-anandamide hydrolysis in cell homogenate; assay type: biochemical; design: expressed in transfected cells; alternatively T84 frozen cell pellets (endogenous FAAH)
T2 sequence (O00519 1-579): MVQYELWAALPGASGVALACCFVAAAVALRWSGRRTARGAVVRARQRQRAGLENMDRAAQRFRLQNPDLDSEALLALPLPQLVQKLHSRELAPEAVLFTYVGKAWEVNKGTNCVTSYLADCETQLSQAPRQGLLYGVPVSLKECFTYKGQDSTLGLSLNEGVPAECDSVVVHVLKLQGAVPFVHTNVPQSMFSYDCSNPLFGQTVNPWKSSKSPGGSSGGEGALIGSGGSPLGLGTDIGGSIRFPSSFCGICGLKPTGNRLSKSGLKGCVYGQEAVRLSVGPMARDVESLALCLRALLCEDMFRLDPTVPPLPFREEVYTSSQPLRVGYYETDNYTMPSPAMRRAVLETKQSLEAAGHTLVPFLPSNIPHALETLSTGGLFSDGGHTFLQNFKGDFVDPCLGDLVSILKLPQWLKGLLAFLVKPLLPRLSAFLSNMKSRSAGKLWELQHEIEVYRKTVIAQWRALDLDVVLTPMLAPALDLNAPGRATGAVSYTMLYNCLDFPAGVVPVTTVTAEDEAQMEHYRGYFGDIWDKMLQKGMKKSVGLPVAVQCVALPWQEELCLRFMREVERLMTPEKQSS
Method: A. Transfection of Cells with Human FAAH
as §1, with “Supercoiled human” for “Supercoiled rat”
as §2, with “[1-3H-ethanolamine]” for “[1-^3H-ethanolamine]”
as §3

Row | Compound | IC50 (Rat FAAH-1) | IC50 (FAAH)
1 | Cc1ccc2sc(-c3cc(NC[C@H](N)c4ccccc4)ncn3)cc2c1 [Example 9, (1R)—N^2-[6-(5-Methyl-1-benzothiophen-2-yl)pyrimidin-4-yl]-1-phenylethane-1,2-diamine hydrochloride acid salt] | 320 nM | 20 nM
2 | N[C@@H](CNc1cc(-c2cc3cc(OC(F)(F)F)ccc3s2)ncn1)c1ccccc1 [Example 25, (1R)-1-Phenyl-N^2-{6-[5-(trifluoromethoxy)-1-benzothiophen-2-yl]pyrimidin-4-yl}ethane-1,2-diamine hydrochloride acid salt] | 370 nM | 80 nM
3 | N[C@@H](CNc1cc(-c2ccc3c(c2)OC(F)(F)O3)ncn1)c1ccccc1 [Example 24, (1R)—N^2-[6-(2,2-Difluoro-1,3-benzodioxol-5-yl)pyrimidin-4-yl]-1-phenylethane-1,2-diamine hydrochloride acid salt] | 1000 nM | 270 nM
4 | N[C@H](CNc1cc(-c2ccc(C(F)(F)F)c(Cl)c2)ncn1)c1ccccc1 [Example 3, (1S)—N^2-{6-[3-Chloro-4-(trifluoromethyl)phenyl]pyrimidin-4-yl}-1-phenylethane-1,2-diamine hydrochloride acid salt] | 2400 nM | 1300 nM
5 | CCSc1ccc(-c2cc(NC[C@H](N)c3ccccc3)ncn2)cc1 [Example 22, (1R)—N^2-{6-[4-(Ethylsulfanyl)phenyl]pyrimidin-4-yl}-1-phenylethane-1,2-diamine hydrochloride acid salt] | 240 nM | 7 nM
6 | N[C@@H](CNc1cc(-c2ccc3c(C(F)(F)F)noc3c2)ncn1)c1ccccc1 [Example 13, (1R)-1-Phenyl-N^2-[6-(3-(trifluoromethyl)-benzo[d]isoxazol-6-yl)pyrimidin-4-yl]-ethane-1,2-diamine hydrochloride acid salt] | 71 nM | 44 nM
7 | N[C@@H](CNc1cc(-c2ccc(OCC(F)(F)F)cc2)ncn1)c1ccccc1 [Example 20, (1R)-1-Phenyl-N^2-{6-[4-(2,2,2-trifluoroethoxy)phenyl]pyrimidin-4-yl}ethane-1,2-diamine hydrochloride acid salt] | 2000 nM | 130 nM
8 | N[C@@H](CNc1cc(-c2ccc(C(F)(F)F)c(F)c2)ncn1)c1ccccc1 [Example 4, (1R)—N^2-{6-[3-Fluoro-4-(trifluoromethyl)phenyl]pyrimidin-4-yl}-1-phenylethane-1,2-diamine hydrochloride acid salt] | 320 nM | 100 nM
9 | N[C@@H](CNc1cc(-c2cc(F)c(OC(F)F)c(F)c2)ncn1)c1ccccc1 [Example 12, (1R)—N^2-{6-[4-(Difluoromethoxy)-3,5-difluorophenyl]pyrimidin-4-yl}-1-phenylethane-1,2-diamine hydrochloride acid salt] | 100 nM | 12 nM

The remaining lines, values ahead:

Row | IC50 (Rat FAAH-1) | IC50 (FAAH) | Compound
10 | 40 nM | 66 nM | N[C@@H](CNc1cc(-c2ccc(C(F)(F)F)c(Cl)c2)ncn1)c1ccc(Cl)cc1 [Example 39, (1R)—N^2-1-(4-Chloro-phenyl)-[6-(3-chloro-4-trifluoromethyl-phenyl)-pyrimidin-4-yl]-ethane-1,2-diamine, trifluoroacetic acid salt]
11 | 60 nM | 33 nM | N[C@@H](CNc1cc(-c2ccc(C(F)(F)F)c(Cl)c2)ncn1)c1ccc(F)cc1 [Example 27, (1R)—N^2-[6-(3-Chloro-4-trifluoromethyl-phenyl)-pyrimidin-4-yl]-1-(4-fluoro-phenyl)-ethane-1,2-diamine]
12 | 115 nM | 120 nM | N[C@@H](CNc1cc(-c2ccc(C(F)(F)F)c(Cl)c2)ncn1)c1ccc(F)c(Cl)c1 [Example 47, (1R)—N^2-1-(3-Chloro-4-fluoro-phenyl)-[6-(3-chloro-4-trifluoromethyl-phenyl)-pyrimidin-4-yl]-ethane-1,2-diamine]
13 | 1700 nM | 1400 nM | N[C@H](CNc1cc(-c2ccc(C(F)(F)F)c(Cl)c2)ncn1)c1ccc(C(F)(F)F)cc1 [Example 29, (1S)—N^2-[6-(3-Chloro-4-trifluoromethyl-phenyl)-pyrimidin-4-yl]-1-(4-trifluoromethyl-phenyl)-ethane-1,2-diamine]
14 | 770 nM | 630 nM | N[C@H](CNc1cc(-c2ccc(C(F)(F)F)c(Cl)c2)ncn1)c1ccc2c(c1)OC(F)(F)O2 [Example 31, (1S)—N^2-[6-(3-Chloro-4-trifluoromethyl-phenyl)-pyrimidin-4-yl]-1-(2,2-difluoro-benzo[1,3]dioxol-5-yl)-ethane-1,2-diamine]

— patent US8906914B2, “Ethylene diamine modulators of fatty acid hydrolase” (priority 2009, dated 2014)
